Source: US20240043699A1, “DISPERSION AND COATINGS DERIVED THEREFROM” (UNIVERSITY OF MASSACHUSETTS, priority 2022, published 2024)

Assay: Krafft Temperature from electrical conductivity in water at various temperatures
Type: physicochemical
Conditions: electrical conductivity vs. temperature, sulfate
Description: In some embodiments, the surfactants useful for the present disclosure can have a high Krafft temperature. For example, exemplary surfactants can have a Krafft temperature of at least 50° C. […] Krafft temperature can be determined by, for example, measuring electrical conductivity in water at various temperatures, where the Krafft temperature is taken to be the inflection point when conductivity is plotted against temperature.
Krafft Temperature, the temperature at which an ionic surfactant begins to form micelles in water, is marked by a significant increase in solubility and therefore electrical conductivity for ionic surfactants. Electrical conductivities of the HMW Surfactant species were measured in water at various temperatures to determine Krafft Temperature.

## CCCCCCCCCCCCOS(=O)(=O)[O-].[Na+] [sodium dodecyl sulfate]
Listed as SDS
  Krafft Temperature: 15 °C
  Krafft Temperature: roughly 15 °C
